Laboratory results: ChEMBL document CHEMBL5346961, “Discovery and Evaluation of 3-Quinoxalin Urea Derivatives as Potent, Selective, and Orally Available ATM Inhibitors Combined with Chemotherapy for the Treatment of Cancer via Goal-Oriented Molecule Generation and Virtual Screening” (J Med Chem, 2023)

Tests used:
HCT-116 [1] = test: Induction of apoptosis in human HCT-116 cells assessed as viable cells at 1 uM measured after 2 days in presence of irinotecan by AnnexinV-FITC/PI staining based analysis (reference value: 72.8%); type: functional; details: HCT-116, 48 h, time 2 day, read-out: Activity
HCT-116 [2] = test: Induction of apoptosis in human HCT-116 cells assessed as necrotic cells at 1 uM measured after 2 days in presence of irinotecan by AnnexinV-FITC/PI staining based analysis (reference value: 0.64%); type: functional; details: time 2 day
[3] = AUC (0 to t) in Balb/C mouse at 10 mg/kg,po measured upto 48 hrs by LC-MS/MS analysis; type: ADME, organism-based; design: dose 10 mg/kg, time < 48 hrs, route po; details: in vivo

Compound `CC(C)NC(=O)N(C)c1cnc2ccc(-c3ccc(OCCCN4CCCCC4)nc3)cc2n1` has a viability at 1 µM (HCT-116 [1]) of 17.3%, an Activity (HCT-116 [2]) of 2.39% and an AUCt [3] of 13.95223 µg·h/mL.
